“And” between values parts separate entries of the source, which are not always exact repeats. Identical values can stand only once.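 Interpolation was linear, between the two tested concentrations surrounding the appropriate level; five concentrations were tested over 48 hours in 96-well plates. GI50 marks 50% less growth. At the TGI there is no net growth.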
Experiments:
Assay in all cases: DTP human tumour cell line panel, 48 h
[1] = tested on: MOLT-4 leukemia
[2] = tested on: CCRF-CEM leukemia
[3] = tested on: RPMI-8226 leukemia
[4] = tested on: SNB-75 CNS
[5] = tested on: NCI-H23 lung
[6] = tested on: IGROV1 ovarian
[7] = tested on: OVCAR-5 ovarian
[8] = tested on: HCT-116 colon
[9] = tested on: SK-MEL-2 melanoma
[10] = tested on: K-562 leukemia

SMILES	TGI [1] [µM]	TGI [2] [µM]	TGI [3] [µM]	TGI [4] [µM]	TGI [5] [µM]	TGI [6] [µM]	TGI [7] [µM]	TGI [8] [µM]	TGI [9] [µM]	TGI [10] [µM]	GI50 [10]	GI50 [1]	GI50 [2]	GI50 [3]	GI50 [5]	GI50 [7]	GI50 [8] [µM]	GI50 [9]	GI50 [4] [µM]	GI50 [6] [µM]
CC1(C)CC2C=C(C=O)C3(C=O)CC3(C)C2C1 (stereo not given)	1.15	1.15	3.95	7.56	3.99	4.68	4.14	2.21	4.45											
COc1ccc2c(=O)c3cc([N+](=O)[O-])ccc3n(C)c2c1	> 100	> 100	> 100	> 100		> 100	> 100		> 100	> 100										
CNc1ccc(-c2cc(=O)oc3ccc(Cl)cc23)cc1	50.1	> 100	33.9		> 100	> 100	> 100	5.23	0.0932	> 100	0.0312 µM and 0.0363 µM	0.108 µM and 0.0626 µM	0.146 µM and 0.0494 µM	0.194 µM and 0.154 µM	0.311 µM and 0.219 µM	0.795 µM and 0.457 µM	0.044	0.215 µM and 0.0294 µM		
COc1ccc(/C=C/c2cc(N3CCOCC3)c3cc(F)c(F)cc3n2)cc1OC	11	10.2	9	6.63	6.11	9.67	11.9	10	11.5			0.624 µM	0.31 µM	1.5 µM	1.12 µM	2.01 µM	0.414	2.39 µM	1.06	0.968
Cc1cc(NS(=O)(=O)c2ccc(NC(=O)c3cccc4c(Nc5ccc(S(=O)(=O)Nc6cc(C)on6)cc5)c5ccccc5nc34)cc2)no1	95.4	> 100	> 100	77.4	> 100	76.5	> 100		78.4	> 100										
O=C(O)C1CCCCN1C(=O)c1ccccc1 (stereo not given)	> 100	> 100	> 100	> 100	> 100	> 100	> 100	> 100		> 100										
COc1cccc(C2NC(=S)NC(C)=C2C(=O)Nc2ccc(F)c(Cl)c2)c1 (stereo not given)			> 50		47.7	> 50	38.9	> 50	> 50	49.2	12.6 µM			11.6 µM	18.5 µM	12.1 µM	23.1	29.3 µM		27.6
CCC[CH2][Sn]([CH2]CCC)([O]C(=O)c1nccnc1N)[O]C(=O)c1nccnc1N	1.1			2.12	1.91	2.68	3.1	2.3	1.62			0.257 µM			0.573 µM	1.72 µM	1.1	0.424 µM	0.87	1.33
NC(=O)C(NC=O)c1ccccc1 (stereo not given)	> 100	> 100		> 100	> 100	> 100		> 100		> 100										
C=C(C)[C@@H]1CCC2=C[C@@H](OC2=O)[C@@H](C(=C)C)C(=O)/C=C(/C)C(=O)C1	47	28.8	17.1	> 100	60.4	> 100	> 100	42		> 100	18.7 µM	14 µM	4.78 µM	1.76 µM	22.6 µM	70.6 µM	16.1		> 100	40.9
N#CCC(=O)N/N=C1\C(=O)N(c2ccc(Cl)cc2)C(=O)C(=O)C1c1nc2ccccc2o1 (stereo not given)	> 100	> 100		> 100	> 100	> 100		> 100	> 100											
CCOC(=O)C1=C(C)NC2SC(=O)/C(=C\c3ccccc3)N2C1c1ccccc1 (stereo not given)		> 100	> 100	> 100	> 100	> 100	> 100	> 100	> 100	> 100	51.8 µM		14.8 µM	33.5 µM	> 100 µM	> 100 µM	67.5	> 100 µM	> 100	> 100
CC1=C([Se]CC(OC(=O)[C@@H](CO)NC(=O)OC(C)(C)C)C(=O)NC(C)(C)C)C(=O)c2ccccc2C1=O (stereo not given in full)		> 100	8.91	2.6	3.2	3.27	3.73	2.79	4.57				0.525 µM	2.74 µM	1.49 µM	2.1 µM	1.46	2.2 µM	1.3	1.66
CN1c2ccccc2S(=O)(=O)n2c(COc3ccc(Cl)cc3)nnc21	> 100	> 100			> 100	> 100	> 100	> 100	> 100	> 100										
CC1(C)C(=S)C(C)(C)C1=S	> 100		> 100	> 100	> 100	> 100	> 100	> 100	> 100	> 100										
C/C(=C\CCc1ccoc1)CC/C=C(\C)CCCN1CCC(CO)CC1	5.67	6.47	4.48	7.79	14.7	19	18.6	10.4		3.86	1.52 µM	2.32 µM	2.42 µM	2.03 µM	3.78 µM	4.39 µM	2.96		2.1	5.33
c1ccc(-c2nn(-c3ccccc3)[n+](-c3cccc4ccccc34)n2)cc1	15.8		> 100	14.8	12.8	40.8	63.2	17.9	12	16.1	0.608 µM	1.3 µM		0.472 µM	0.994 µM	4.78 µM	0.708	2.92 µM	1.94	1.59
CCN(CC)CCNC(=O)c1cccc2cc3ccccc3nc12	7.95	41.3		21.6		60.7	27.7	21.8	19.9	> 100										
